In ChEMBL document CHEMBL4834394, “Neobulgarones Revisited: Anti and Syn Bianthrones from an Australian Mud Dauber Wasp Nest-Associated Fungus, Penicillium sp. CMB-MD22” (J Nat Prod, 2021) one finds IC50 and Activity data, which are given here for 16 molecules.

Molecules are shown by their SMILES. pIC50: −log10 of the molar value. The source made the active and inactive calls. The calls are words filed in the database; no cut-off is given here.

One data set has as its system Escherichia coli. Nature of the data set: Antibacterial activity against Escherichia coli ATCC 11775 assessed as inhibition of bacterial growth incubated for 24 hrs. The data set is classed as functional, organism-based. Particulars: ATCC 11775, 24 h.
The test system of the next data set is Candida albicans. Nature of the data set: Antifungal activity against Candida albicans ATCC 10231 assessed as inhibition of fungal growth incubated for 24 hrs. The note with it: ATCC 10231, 24 h. The data set is classed as functional, organism-based.
The subject of the next data set is SW-620. In words: Cytotoxicity against human SW620 cells after 48 hrs by MTT assay. The data set is classed as functional, cell-based.
Data set [1] concerns the target ATP-dependent translocase ABCB1 (Homo sapiens, UniProt P08183). In words: Reversal of P-gp mediated doxorubicin resistance in human SW620 Ad300 cells overexpressing P-gp at 30 uM after 48 hrs by MTT assay. The data set is classed as cell-based. The note with it: sw-620, 48 h. Background: Tetrazolium dyes change colour on reduction, which living cells bring about.

A further data set concerns Staphylococcus aureus. In words: Antibacterial activity against Staphylococcus aureus ATCC 25923 assessed as inhibition of bacterial growth incubated for 24 hrs. The data set is classed as functional, organism-based. Particulars: ATCC 25923, 24 h.

Chain of ATP-dependent translocase ABCB1 (P08183 whole entry): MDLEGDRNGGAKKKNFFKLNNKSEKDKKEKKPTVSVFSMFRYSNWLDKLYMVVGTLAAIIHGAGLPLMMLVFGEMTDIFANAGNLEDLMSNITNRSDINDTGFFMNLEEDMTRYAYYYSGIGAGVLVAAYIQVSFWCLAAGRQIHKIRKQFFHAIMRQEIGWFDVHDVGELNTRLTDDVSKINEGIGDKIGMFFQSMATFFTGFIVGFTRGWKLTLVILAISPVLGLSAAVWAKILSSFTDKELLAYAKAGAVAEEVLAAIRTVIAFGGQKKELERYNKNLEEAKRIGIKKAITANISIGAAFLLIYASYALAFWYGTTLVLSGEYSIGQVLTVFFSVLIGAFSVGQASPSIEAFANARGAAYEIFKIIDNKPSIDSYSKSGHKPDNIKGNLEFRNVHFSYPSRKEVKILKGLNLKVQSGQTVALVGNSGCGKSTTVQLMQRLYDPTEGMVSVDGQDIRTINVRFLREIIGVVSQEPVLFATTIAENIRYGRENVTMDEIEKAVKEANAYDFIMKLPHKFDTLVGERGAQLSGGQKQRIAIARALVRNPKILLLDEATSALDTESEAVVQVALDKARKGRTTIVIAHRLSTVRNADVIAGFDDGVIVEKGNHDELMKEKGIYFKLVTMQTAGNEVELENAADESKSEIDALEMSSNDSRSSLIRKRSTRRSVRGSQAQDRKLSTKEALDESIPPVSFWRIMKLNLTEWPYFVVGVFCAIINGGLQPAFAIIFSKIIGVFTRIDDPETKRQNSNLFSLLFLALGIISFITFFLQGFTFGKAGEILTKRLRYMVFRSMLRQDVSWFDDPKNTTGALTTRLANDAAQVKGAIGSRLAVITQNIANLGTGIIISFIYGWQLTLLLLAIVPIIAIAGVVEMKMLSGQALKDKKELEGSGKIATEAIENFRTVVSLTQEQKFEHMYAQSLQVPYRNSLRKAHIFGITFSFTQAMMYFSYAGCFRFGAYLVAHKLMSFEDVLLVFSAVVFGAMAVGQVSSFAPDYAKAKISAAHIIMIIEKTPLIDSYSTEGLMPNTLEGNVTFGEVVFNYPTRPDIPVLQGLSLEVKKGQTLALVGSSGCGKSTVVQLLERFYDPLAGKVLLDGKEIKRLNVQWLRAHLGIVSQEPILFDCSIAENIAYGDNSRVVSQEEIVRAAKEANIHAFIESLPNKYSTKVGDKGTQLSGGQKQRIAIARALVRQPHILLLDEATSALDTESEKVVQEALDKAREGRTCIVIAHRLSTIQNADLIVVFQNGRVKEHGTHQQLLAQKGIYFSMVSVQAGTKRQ

The pIC50 is −log10 of the IC50, conventionally taken in molar units. As to `COc1cc(C)cc2c1C(=O)c1c(cc(O)c(OC)c1O)[C@H]2[C@@H]1c2cc(C)cc(OC)c2C(=O)c2c(O)cc(O)c(Cl)c21`, the pIC50 with Escherichia coli, in the data set on Candida albicans and in the data set with Staphylococcus aureus was below 4.52 throughout. In addition, the outcome with SW-620 was inactive. Also, the Activity result in data set [1] was “Not Active”.
Regarding `COc1cc(CO)cc2c1C(=O)c1c(O)cc(O)cc1C2=O` [CARVIOLIN], the pIC50 with Escherichia coli, in the data set with Candida albicans and with Staphylococcus aureus was below 4.52 each time. Besides, the result with SW-620 was inactive. For the same molecule, the Activity result in data set [1] is on record as “Not Active”.
Turning to `COc1cc(C)cc2c1C(=O)c1c(cc(O)c(OC)c1O)[C@@H]2[C@@H]1c2cc(C)cc(OC)c2C(=O)c2c(O)c(OC)c(O)c(Cl)c21`, the pIC50 in the data set with Escherichia coli, with Candida albicans and in the data set on Staphylococcus aureus was below 4.52 each time. Also, the outcome in the data set with SW-620 was inactive. Further, the Activity entry in data set [1] is reported as “Not Active”.
As for `COc1cc(C)cc2c1C(=O)c1c(O)cc(O)cc1C2=O` [1-O-METHYLEMODIN], the negative logarithm of the IC50 (pIC50) in the data set on Escherichia coli, with Candida albicans and in the data set with Staphylococcus aureus was below 4.52 each time. Moreover, in the data set with SW-620, the result was inactive. In addition, the Activity entry in data set [1] is listed as “Not Active”.
For `COc1cc(C)cc2c1C(=O)c1c(O)cc(O)c(Cl)c1[C@@H]2[C@H]1c2cc(C)cc(OC)c2C(=O)c2c(O)cc(O)c(Cl)c21`, the pIC50 in the data set with Escherichia coli, in the data set on Candida albicans and in the data set on Staphylococcus aureus was below 4.52 in each case. Besides, the outcome with SW-620 was inactive. Besides, in data set [1], the Activity entry was “Not Active”.
As for `COc1cc(C)cc2c1C(=O)c1c(O)cc(O)cc1[C@@H]2[C@@H]1c2cc(C)cc(OC)c2C(=O)c2c(O)cc(O)c(Cl)c21`, the pIC50 in the data set on Escherichia coli, in the data set with Candida albicans and in the data set on Staphylococcus aureus was below 4.52 throughout. Further, the outcome with SW-620 was inactive. Further, in data set [1], the Activity entry is reported as “Not Active”.
As to `COc1cc(C)cc2c1C(=O)c1c(O)cc(O)c(Cl)c1[C@@H]2[C@@H]1c2cc(C)cc(OC)c2C(=O)c2c(O)cc(O)c(Cl)c21`, the pIC50 with Escherichia coli, in the data set on Candida albicans and in the data set with Staphylococcus aureus was below 4.52 each time. Besides, the outcome in the data set on SW-620 was inactive. Besides, the Activity entry in data set [1] is reported as “Not Active”.
With `COc1cc(C)cc2c1C(=O)c1c(cc(O)c(OC)c1O)[C@@H]2[C@@H]1c2cc(C)cc(OC)c2C(=O)c2c(O)cc(O)c(Cl)c21`, the pIC50 in the data set on Escherichia coli, in the data set with Candida albicans and in the data set with Staphylococcus aureus was below 4.52 throughout. The result with SW-620 was inactive. The Activity result in data set [1] is “Not Active”.
`COc1cc(C)cc2c1C(=O)c1c(O)c(OC)c(O)c(Cl)c1[C@@H]2[C@H]1c2cc(C)cc(OC)c2C(=O)c2c(O)c(OC)c(O)c(Cl)c21`: the pIC50 in the data set with Escherichia coli, in the data set with Candida albicans and in the data set with Staphylococcus aureus was below 4.52 in each case. Also, the result in the data set with SW-620 was inactive. Also, the Activity entry in data set [1] is listed as “Not Active”.
On to `COc1cc(CO)cc2c1C(=O)c1c(cc(O)c(OC)c1O)C2=O`, for which the pIC50 with Escherichia coli, with Candida albicans and in the data set with Staphylococcus aureus was below 4.52 in each case. Moreover, the outcome with SW-620 was inactive. Moreover, in data set [1], the Activity entry is given as “Not Active”.
With `COc1cc(C)cc2c1C(=O)c1c(O)c(OC)c(O)c(Cl)c1[C@@H]2[C@@H]1c2cc(C)cc(OC)c2C(=O)c2c(O)c(OC)c(O)c(Cl)c21`, the pIC50 in the data set with Escherichia coli, in the data set on Candida albicans and in the data set with Staphylococcus aureus was below 4.52 each time. The outcome with SW-620 was inactive. Moreover, the Activity result in data set [1] is recorded as “Not Active”.
Turning to `COc1cc(C)cc2c1C(=O)c1c(O)cc(O)c(Cl)c1[C@@H]2[C@@H]1c2cc(C)cc(OC)c2C(=O)c2c(O)c(OC)c(O)c(Cl)c21`, the pIC50 in the data set with Escherichia coli, with Candida albicans and in the data set on Staphylococcus aureus was below 4.52 in each case. The result with SW-620 was inactive. Also, the Activity result in data set [1] is given as “Not Active”.
As to `COc1cc(C)cc2c1C(=O)c1c(O)c(OC)c(O)c(Cl)c1[C@@H]2[C@H]1c2cc(C)cc(OC)c2C(=O)c2c(O)cc(O)c(Cl)c21`, the pIC50 with Escherichia coli, in the data set with Candida albicans and in the data set with Staphylococcus aureus was below 4.52 throughout. Besides, the outcome in the data set on SW-620 was inactive. In data set [1], the Activity result is “Not Active”.
For the molecule `COc1cc(C)cc2c1C(=O)c1c(O)cc(O)cc1[C@@H]2[C@@H]1c2cc(C)cc(OC)c2C(=O)c2c(O)c(OC)c(O)c(Cl)c21`, the pIC50 with Escherichia coli, in the data set with Candida albicans and in the data set on Staphylococcus aureus was below 4.52 in each case. The outcome in the data set on SW-620 was inactive. The Activity result in data set [1] is “Not Active”.
Consider `COc1cc(C)cc2c1C(=O)c1c(cc(O)c(OC)c1O)C2=O`, for which the pIC50 with Escherichia coli, with Candida albicans and in the data set on Staphylococcus aureus was below 4.52 throughout. The outcome in the data set on SW-620 was inactive. The Activity result in data set [1] is reported as “Not Active”.
On to `COc1cc(C)cc2c1C(=O)c1c(O)cc(O)c(Cl)c1C2O` (stereo not given), for which the pIC50 with Escherichia coli, in the data set with Candida albicans and in the data set on Staphylococcus aureus was below 4.52 each time. Further, the outcome with SW-620 was inactive. In addition, the Activity entry in data set [1] is on record as “Not Active”.
